Test results reported in patent US11229664B2, “Treatment of myelosuppression” (priority 2012, dated 2022).
Values joined by “and” are separate entries in the source; they are usually repeats but may differ in a detail not shown here. Equal values may be shown once. Read-outs that look alike come from different tables or passages of the source.

Key:
[1] = test system: Human ovarian cancer cell line A2780; test: A2780 human ovarian cancer xenograft model: tumor weight; assay type: in vivo, athymic female mice; parameters: key to Mouse status printed in place of tumor weight: FD = Found Dead; TS = Terminal Sacrifice; conditions: for Mouse status printed in place of tumor weight: Groups 2 and 3
Experimental: (§1) ODSH (50 mg/mL stock concentration) was made by Pyramid Laboratories, Inc. and stored at room temperature until use. As described further below, ODSH was administered either intravenously (IV), at a dose of 48 mg/kg and volume of 10 mL/kg, or subcutaneously (SC) at a dose of 24 mg/kg and volume of 5 ml/kg. Carboplatin obtained from a clinical supplier was stored at 4° C. until use. Carboplatin was administered by intraperitoneal injection (IP) at a dose of 80 mg/kg and volume of 10 mL/kg. Saline solution (0.9% NaCl) was used as a vehicle control for ODSH and administered by the same routes and in the same volumes as ODSH.
(§2) Human ovarian cancer cell line A2780 was used in the murine xenograft experiments as follows. Approximately 5×10^6 A2780 cells were used per mouse, injected subcutaneously into the right flank in 0.1 mL of 50% Matrigel/50% media. The study was initiated when tumors reached a size of 90-130 mg. 40 mice were used, 10 per treatment regimen. The mice were normal athymic female mice, aged 6-7 weeks, housed in microisolator cages and maintained under pathogen-free conditions. Tumor and body weights were measured three times per week.
(§3) Four treatment groups were studied.

[2] = A2780 xenograft study: body weight; assay type: in vivo, athymic female mice; conditions: Group 3: 80 mg/kg IP QD 1, 8, 15, individual mice, 80 mg/kg
Experimental: as §1, §2, §3

[3] = for Deaths: N = 10 per group
Experimental: All experiments were conducted on female athymic nude mice (Hsd:Athymic Nude-Foxn1nu) supplied by Harlan (Indianapolis, Ind.). Mice were received at four weeks of age, 12-15 grams in weight, and were acclimated for seven days prior to handling. The mice were housed in microisolator cages (Lab Products, Seaford, Del.) and maintained under specific pathogen-free conditions. All procedures were carried out under appropriate institutional guidelines for animal care.
Seven days following inoculation, tumors were measured using calipers and tumor weight was calculated using the animal study management software. […] Body weights were recorded when the mice were randomized and were taken twice weekly thereafter in conjunction with tumor measurements, on each of Days 1, 4, 8, 11, 15, 18, 22, 26, 30, 33, and 36.
The study was terminated when the vehicle control reached an endpoint of 1500 mg, on Day 36.

[4] = test system: BxPC-3 pancreas tumor cell line; test: BxPC-3 human pancreas tumor xenograft model: tumor weight, tumor growth inhibition (TGI); assay type: in vivo, female athymic nude mice
Experimental: Compounds tested in the experiment were as follows. ODSH was made by Pyramid Laboratories, Inc. (Costa Mesa, Calif.). ODSH was provided at a stock concentration of 50 mg/ml and stored at room temperature until use. ODSH was diluted in a 0.9% NaCl solution (B. Braun Medical Inc., Irvine, Calif.) to a concentration of 2.4 mg/ml to deliver 24 mg/kg, in a 10 ml/kg dose volume when administered intravenously. A concentration of 4.8 mg/ml was formulated to deliver a 24 mg/kg dose at a 5 ml/kg dose volume when administered subcutaneously. ODSH was formulated fresh prior to each dose.
Nab-paclitaxel was manufactured by Abraxis BioScience LLC (Bridgewater, N.J.) and diluted in a 0.9% NaCl solution to a concentration of 1.5 mg/ml to deliver 15 mg/kg, in a 10 ml/kg dose volume. All standard agent preparations were made fresh prior to their administration.
BxPC-3 cells were obtained and prepared as follows. The BxPC-3 pancreas tumor cell line was received from American Type Culture Collection (ATCC, Manassas, Va.). Cultures were maintained in RPMI 1640 medium (Hyclone, Logan, Utah) supplemented with 5% fetal bovine serum. The cells were housed in a 5% CO2 atmosphere. The cultures were expanded in tissue culture flasks at a 1:3 split ratio until a sufficient amount of cells were harvested.
BxPC-3 Human Pancreas Tumor Xenograft Model: Female athymic nude mice per treatment condition were inoculated subcutaneously in the right flank with 0.1 ml of a 50% RPMI 1640/50% Matrigel™ (BD Biosciences, Bedford, Mass.) mixture containing a suspension of BxPC-3 tumor cells (approximately 5×10^6 cells/mouse).
Study Director V.1.7.54k (Study Log).
Mean tumor growth inhibition (TGI) was calculated utilizing Formula A below (deaths were not included in the TGI calculations).
All statistical analyses in the xenograft study were performed with GraphPad Prism® v4 software.

anticoagulant activity = conditions: cited from earlier work
Xa = Xa (Homo sapiens, UniProt P00742); conditions: cited from earlier work
IIa = IIa (Homo sapiens, UniProt P00734+P01008); conditions: cited from earlier work
anti-thrombin III = anti-thrombin III (Homo sapiens, UniProt P01008); conditions: cited from earlier work
[5] = Total deaths on or before Day 26

Sequence of anti-thrombin III (P01008 33-464, species assumed): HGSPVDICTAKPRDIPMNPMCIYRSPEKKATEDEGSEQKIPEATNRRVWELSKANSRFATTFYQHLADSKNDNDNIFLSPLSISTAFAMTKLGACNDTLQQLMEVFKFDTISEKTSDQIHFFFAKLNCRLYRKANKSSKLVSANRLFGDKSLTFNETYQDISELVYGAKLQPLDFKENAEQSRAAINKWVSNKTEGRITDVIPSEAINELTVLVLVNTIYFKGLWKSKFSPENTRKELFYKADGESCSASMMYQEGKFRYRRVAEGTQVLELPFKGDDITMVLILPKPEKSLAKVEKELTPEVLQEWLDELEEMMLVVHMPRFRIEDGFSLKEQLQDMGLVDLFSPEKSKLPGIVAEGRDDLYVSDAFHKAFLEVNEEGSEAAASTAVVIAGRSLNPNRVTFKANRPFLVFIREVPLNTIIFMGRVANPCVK
Sequence of Xa (P01008 33-464 partner): as the sequence (P01008 33-464, species assumed) above
Sequence of Xa (P00742 235-488 limits assumed): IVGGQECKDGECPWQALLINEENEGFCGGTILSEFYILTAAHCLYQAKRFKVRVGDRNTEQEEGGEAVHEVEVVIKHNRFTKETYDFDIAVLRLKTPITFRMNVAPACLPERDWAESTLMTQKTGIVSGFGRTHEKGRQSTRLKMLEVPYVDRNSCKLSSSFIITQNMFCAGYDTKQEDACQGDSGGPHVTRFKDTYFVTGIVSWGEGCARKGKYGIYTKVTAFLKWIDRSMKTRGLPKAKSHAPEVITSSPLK

## N.N.O=C([O-])C1(C(=O)[O-])CCC1.[Pt+2] [Carboplatin, reference compound]
[1]; Day 1
  Tumor weight, Mean: 107.3 mg
  Tumor weight, Median: 105.6 mg
[1]; Day 1, Mouse 1-10
  Tumor weight, individual mice: 104 mg and 105 mg and 106 mg and 110 mg and 113 mg and 116 mg and 127 mg and 94 mg and 96 mg and 102 mg
[1]; Day 4
  Tumor weight, Mean: 148.2 mg
  Tumor weight, Median: 144.5 mg
[1]; Day 4, Mouse 1-10
  Tumor weight, individual mice: 108 mg (2×) and 175 mg and 199 mg and 142 mg and 163 mg and 147 mg and 194 mg and 137 mg and 109 mg
[1]; Day 6
  Tumor weight, Mean: 213.0 mg
  Tumor weight, Median: 215.6 mg
[1]; Day 6, Mouse 1-10
  Tumor weight, individual mice: 114 mg and 264 mg and 239 mg and 223 mg and 300 mg and 208 mg and 256 mg and 200 mg and 157 mg and 169 mg
[1]; Day 8
  Tumor weight, Mean: 356.5 mg
  Tumor weight, Median: 364.2 mg
[1]; Day 8, Mouse 1-10
  Tumor weight, individual mice: 148 mg and 466 mg and 358 mg and 371 mg and 605 mg and 306 mg and 386 mg and 419 mg and 245 mg and 262 mg
[1]; Day 11
  Tumor weight, Mean: 483.1 mg
  Tumor weight, Median: 508.5 mg
[1]; Day 11, Mouse 1-10
  Tumor weight, individual mice: 103 mg and 539 mg and 499 mg and 419 mg and 813 mg and 555 mg and 542 mg and 517 mg and 442 mg and 402 mg
[1]; Day 14
  Tumor weight, Mean: 719.3 mg
  Tumor weight, Median: 750.3 mg
[1]; Day 14, Mouse 1-10
  Tumor weight, individual mice: 96 mg and 875 mg and 799 mg and 628 mg and 1,093 mg and 795 mg and 975 mg and 587 mg and 706 mg and 640 mg
[1]; Day 18
  Tumor weight, Mean: 984.1 mg
  Tumor weight, Median: 1,051.0 mg
[1]; Day 18, Mouse 1-10
  Tumor weight, individual mice: 84 mg and 1,349 mg and 1,218 mg and 713 mg and 1,806 mg and 1,160 mg and 1,168 mg and 942 mg and 730 mg and 671 mg
[1]; Day 21
  Tumor weight, Mean: 1,327.3 mg
  Tumor weight, Median: 1,328.6 mg
[1]; Day 21, Mouse 1-10
  Tumor weight, individual mice: 112 mg and 1,790 mg and 1,596 mg and 834 mg and 2,675 mg and 1,626 mg and 1,439 mg and 1,218 mg and 941 mg and 1,040 mg
[1]; Day 25
  Tumor weight, Mean: 1,761.3 mg
  Tumor weight, Median: 1,921.0 mg
[1]; Day 25, Mouse 1-10
  Tumor weight, individual mice: 2,403 mg and 2,127 mg and 1,109 mg and 1,921 mg and 1,246 mg
[1]; Day 25, individual mice
  Mouse status printed in place of tumor weight: TS
[1]; Day 28
  Tumor weight, Mean: 2,243.0 mg
  Tumor weight, Median: 2,461.0 mg
[1]; Day 28, Mouse 1-10
  Tumor weight, individual mice: 2,877 mg and 2,599 mg and 1,539 mg and 2,461 mg and 1,739 mg
[1]; Day 28, individual mice
  Mouse status printed in place of tumor weight: TS
[2]; Day 1 (baseline)
  Individual weights, Day 1 Weight: 23.2 g and 20.6 g and 22.6 g and 21.7 g and 20.7 g and 22.4 g and 19.7 g and 20.3 g and 21.6 g and 22.2 g
[2]; Day 4
  Day 4 Weight change: −2.6% and −5.3% and −4.4% and −3.2% and 1.9% and −0.4% and −5.6% and −5.9% and −2.3% and −1.8%
  Individual weights, Day 4 Weight: 22.6 g and 19.5 g and 21.6 g and 21.0 g and 21.1 g (2×) and 22.3 g and 18.6 g and 19.1 g and 21.8 g
[2]; Day 6
  Day 6 Weight change: −3.0% (2×) and −4.9% and 1.3% and −1.4% and 3.91% and −0.4% and −4.4% and −3.7% and −3.2%
  Individual weights, Day 6 Weight: 22.5 g and 19.6 g and 22.9 g and 21.4 g and 21.5 g (2×) and 22.3 g and 19.1 g and 19.4 g and 20.8 g
[2]; Day 8
  Day 8 Weight change: 2.2% (2×) and 0.5% (2×) and 6.2% and 1.4% and 5.3% and 1.5% and −1.0% and −1.4%
  Individual weights, Day 8 Weight: 23.7 g and 20.7 g and 24.0 g and 22.0 g and 23.8 g and 22.9 g and 20.0 g and 20.1 g and 21.3 g and 22.3 g
[2]; Day 11
  Day 11 Weight change: −7.3% and −4.9% and 0.9% and −5.5% and 2.4% and −3.6% and −5.1% and −6.4% and −11.1% and −7.7%
  Individual weights, Day 11 Weight: 21.5 g and 19.6 g and 22.8 g and 20.5 g (2×) and 21.2 g and 21.6 g and 18.7 g and 19.0 g and 19.2 g
[2]; Day 14
  Day 14 Weight change: −2.2% and 1.0% and 2.7% and −0.5% and 9.7% and 3.1% and −1.5% and −3.0% and −10.6% and −9.5%
  Individual weights, Day 14 Weight: 22.7 g (2×) and 20.0 g and 23.2 g and 21.6 g and 23.1 g and 19.4 g and 19.7 g and 19.3 g and 20.1 g
[2]; Day 18
  Day 18 Weight change: −4.3% and −1.9% and −5.8% and −10.6% and 6.3% and 4.0% and −8.6% and −7.9% and −17.1% and −9.0%
  Individual weights, Day 18 Weight: 22.2 g and 20.2 g (2×) and 21.3 g and 19.4 g and 22.0 g and 23.3 g and 18.0 g and 18.7 g and 17.9 g
[2]; Day 21
  Day 21 Weight change: −0.4% and 3.9% and −4.9% and −8.3% and 13.5% and 7.1% and −8.6% (2×) and −5.4% and −15.7%
  Individual weights, Day 21 Weight: 23.1 g and 21.4 g and 21.5 g and 19.9 g and 23.5 g and 24.0 g and 18.0 g and 19.2 g and 18.2 g and 20.3 g
[2]; Day 25
  Day 25 Weight change: 8.3% and −3.5% and −6.9% and −2.0% and −8.1%
  Individual weights, Day 25 Weight: 22.3 g and 21.8 g and 20.2 g and 19.9 g and 20.4 g
[2]; Day 28
  Day 28 Weight change: 11.7% and −1.8% and −2.8% and 3.0% and −8.6%
  Individual weights, Day 28 Weight: 23.0 g and 22.2 g and 21.1 g and 20.9 g and 20.3 g

## Nc1ccn([C@@H]2O[C@H](CO)[C@@H](O)C2(F)F)c(=O)n1 [Gemcitabine]
[3]; [5]
  Deaths: 0
[3]; Total deaths on or before Day 36
  Deaths: 0
[3]; mouse, in vivo
  Day by which the mice recovered their weight: ≤ 18 days
  Day on which maximum weight loss was reached: 11 days
  Maximum weight loss: 8.7%
  Starting Weight: 22.48 g

## O=C1[O][Pt]2([NH][C@@H]3CCCC[C@H]3[NH]2)[O]C1=O [Oxaliplatin, reference compound]
[4]; ANOVA with Tukey's Multiple Comparison Test, BxPC-3 xenograft
  Difference in tumor weight compared to vehicle control, Day 26: No significant difference
[4]; Day 26, Group 3: oxaliplatin 10 mg/kg IV wkly x4 (alone to Day 26), from Day 26 gemcitabine 80 mg/kg IP + nab-paclitaxel 15 mg/kg IV
  Tumor weight, Mean: 635.0 mg
[4]; Day 26 vs Day 1, compared to vehicle control, BxPC-3 xenograft, ODSH 24 mg/kg BID, oxaliplatin 10 mg/kg, gemcitabine 80 mg/kg (Table 1)
  TGI (mean tumor growth inhibition), Day 26: 8.0%
[4]; Table 14, treatment administered until Day 26
  Day 26 Tumor Weight: 635.0 ± 52.3 mg
[3]; Day 1
  Average Weight: 20.82 g
[3]; Day 4
  % Weight Loss or Gain: −2.02%
[3]; Day 8
  % Weight Loss or Gain: −0.82%
[3]; Day 11
  Average Weight: 20.12 g
[3]; Day 15
  % Weight Loss or Gain: −0.05%
  Average Weight: 20.81 g
[3]; Day 18
  % Weight Loss or Gain: −1.78%
[3]; [5]
  Deaths: 0
[3]; group mean body weight at start, dose, schedule and route per group as in table
  Starting Weight: 20.82 g
[3]; ten mice per group, BxPC-3 xenograft study
  Mice with bruising on the tails or abdomen (site of injection): One mouse

## unfractionated heparin
Anticoagulant activity
  Anticoagulant activity, USP anticoagulant assay: 165-190 U/mg
Xa
  anti-Xa activity: 165-190 U/mg
IIa
  anti-IIa activity: 165-190 U/mg
anti-thrombin III
  Kd, affinity for anti-thrombin III: 22 µg/mL
anti-thrombin III; read-out: Kd, affinity for anti-thrombin III
  Kd: 1560 nM
